# Values of other authors in US7067315B2, “Identification of anti-protozoal agents” (President and Fellows of Harvard College, priority 2001, dated 2006).
# Tested on: Apicomplexan parasites
# Conditions: several Apicomplexan parasites; by net actin filament depolymerization
smiles,measurement,value
C=C1[C@@H](C)[C@H]2[C@H](Cc3ccccc3)NC(=O)[C@]23[C@H](OC(C)=O)/C=C/[C@@](C)(O)C(=O)[C@@H](C)C/C=C/[C@H]3[C@@H]1O [cytochalsin D],inhibition of parasite motility and invasion,inhibits parasite motility and invasion
